Results: ChEMBL document CHEMBL5532652, “Design and synthesis of pterostilbene derivatives bearing triazole moiety that might treat DSS-induced colitis in mice through modulation of NF-κB/MAPK signaling pathways” (Eur J Med Chem, 2024)
Calls of active or inactive are those of the source. The calls are words filed in the database; no cut-off is given here.

Experiments:
[1] = Acute toxicity in C57BL/6 mouse assessed as kidney damage at 1000 mg/kg, po measured for 14 days; format: organism-based; conditions: in vivo, 336 h, time 14 day
[2] = Acute toxicity in C57BL/6 mouse assessed as lung damage at 1000 mg/kg, po measured for 14 days; format: organism-based; conditions: in vivo, 336 h, time 14 day
RAW264.7 [3] = assay: Anti-inflammatory activity in mouse RAW264.7 cells assessed as inhibition of LPS-induced NO production incubated pretreated with compound for 1 hr followed by LPS-induction and measured after 24 hrs by Griess reagent based assay; format: functional, cell-based
[4] = Cytotoxicity against mouse RAW264.7 cells assessed as reduction in cell viability at 20 uM incubated for 24 hrs in presence of LPS by MTT assay; format: toxicity, cell-based
[5] = Cytotoxicity against mouse RAW264.7 cells assessed as reduction in cell viability at 20 uM incubated for 24 hrs in absence of LPS by MTT assay; format: toxicity, cell-based
RAW264.7 [6] = assay: Anti-inflammatory activity against LPS-stimulated mouse RAW264.7 cells assessed as downregulation of LPS-induced iNOS expression at 0.5 to 2 uM preincubated with compound for 1 hr followed by LPS stimulation and measured after 24 hrs by Western blot analysis; format: functional, cell-based; conditions: dose 0.5-2 µM, time 25.0 hrs
RAW264.7 [7] = assay: Anti-inflammatory activity against LPS-stimulated mouse RAW264.7 cells assessed as downregulation of LPS-induced COX-2 expression at 0.5 to 2 uM preincubated with compound for 1 hr followed by LPS stimulation and measured after 24 hrs by Western blot analysis; format: functional, cell-based; conditions: dose 0.5-2 µM, time 25.0 hrs
RAW264.7 [8] = assay: Anti-inflammatory activity against LPS-stimulated mouse RAW264.7 cells assessed as reduction in LPS-induced iNOS level preincubated with compound for 1 hr followed by LPS stimulation and measured after 24 hrs by Western blot analysis; format: functional, cell-based; conditions: dose 0.5-2 µM, time 25.0 hrs
RAW264.7 [9] = assay: Anti-inflammatory activity in LPS-stimulated mouse RAW264.7 cells assessed as inhibition of p65 phosphorylation at 0.5 to 2 uM preincubated with compound for 1 hr followed by LPS stimulation and measured after 30 mins by Western blot analysis; format: functional, cell-based; conditions: dose 0.5-2 µM, time 1.5 hrs
RAW264.7 [10] = assay: Anti-inflammatory activity in LPS-stimulated mouse RAW264.7 cells assessed as inhibition of ERK phosphorylation preincubated with compound for 1 hr followed by LPS stimulation and measured after 30 mins by Western blot analysis; format: functional, cell-based; conditions: dose 0.5-2 µM, time 1.5 hrs
RAW264.7 [11] = assay: Anti-inflammatory activity in LPS-stimulated mouse RAW264.7 cells assessed as inhibition of JNK phosphorylation preincubated with compound for 1 hr followed by LPS stimulation and measured after 30 mins by Western blot analysis; format: functional, cell-based; conditions: dose 0.5-2 µM, time 1.5 hrs
RAW264.7 [12] = assay: Anti-inflammatory activity in LPS-stimulated mouse RAW264.7 cells assessed as reduction in p38 level at 0.5 to 2 uM preincubated with compound for 1 hr followed by LPS stimulation and measured after 30 mins by Western blot analysis; format: functional, cell-based; conditions: dose 0.5-2 µM, time 1.5 hrs
RAW264.7 [13] = assay: Anti-inflammatory activity in LPS-stimulated mouse RAW264.7 cells assessed as reduction in ERK level at 0.5 to 2 uM preincubated with compound for 1 hr followed by LPS stimulation and measured after 30 mins by Western blot analysis; format: functional, cell-based; conditions: dose 0.5-2 µM, time 1.5 hrs
RAW264.7 [14] = assay: Anti-inflammatory activity in LPS-stimulated mouse RAW264.7 cells assessed as reduction in JNK level at 0.5 to 2 uM preincubated with compound for 1 hr followed by LPS stimulation and measured after 30 mins by Western blot analysis; format: functional, cell-based; conditions: dose 0.5-2 µM, time 1.5 hrs
Mus musculus [15] = assay: Anti-inflammatory activity against DSS-induced acute colitis C57BL/6J mouse model assessed as decrease in colon length at 10 to 20 mg/kg, po measured for 7 days; format: functional, organism-based; conditions: dose 10-20 mg/kg, time 7.0 day
Mus musculus [16] = assay: Anti-inflammatory activity against DSS-induced acute colitis C57BL/6J mouse model assessed as decrease in neutrophil infiltration in colon at 10 to 20 mg/kg, po measured for 7 days; format: functional, organism-based; conditions: dose 10-20 mg/kg, time 7.0 day
Mus musculus [17] = assay: Anti-inflammatory activity against DSS-induced acute colitis C57BL/6J mouse model assessed as decrease in goblet cells in colon at 10 to 20 mg/kg, po measured for 7 days; format: functional, organism-based; conditions: dose 10-20 mg/kg, time 7.0 day
Mus musculus [18] = assay: Anti-inflammatory activity against DSS-induced acute colitis C57BL/6J mouse model assessed as disappearance of crypt foci in colon at 10 to 20 mg/kg, po measured for 7 days; format: functional, organism-based; conditions: dose 10-20 mg/kg, time 7.0 day
Mus musculus [19] = assay: Anti-inflammatory activity against DSS-induced acute colitis C57BL/6J mouse model assessed as reduction in edema at 10 to 20 mg/kg, po measured for 7 days; format: functional, organism-based; conditions: dose 10-20 mg/kg, time 7.0 day
Mus musculus [20] = assay: Anti-inflammatory activity against DSS-induced acute colitis C57BL/6J mouse model assessed as reduction in TNF-alpha level in colon at 10 to 20 mg/kg, po measured for 7 days by ELISA analysis; format: functional, organism-based; conditions: dose 10-20 mg/kg, time 7.0 day
Mus musculus [21] = assay: Anti-inflammatory activity against DSS-induced acute colitis C57BL/6J mouse model assessed as reduction in IL-1beta level in colon at 10 to 20 mg/kg, po measured for 7 days by ELISA analysis; format: functional, organism-based; conditions: dose 10-20 mg/kg, time 7.0 day
Mus musculus [22] = assay: Anti-inflammatory activity against DSS-induced acute colitis C57BL/6J mouse model assessed as reduction in IL-6 level in colon at 10 to 20 mg/kg, po measured for 7 days by ELISA analysis; format: functional, organism-based; conditions: dose 10-20 mg/kg, time 7.0 day
[23] = Acute toxicity in female C57BL/6 mouse assessed as effect on body weight gain at 1000 to 2000 mg/kg, po measured for 14 days; format: organism-based; conditions: in vivo, 336 h, dose 1000-2000 mg/kg, time 14 day
[24] = Acute toxicity in male C57BL/6 mouse assessed as effect on body weight gain at 1000 to 2000 mg/kg, po measured for 14 days; format: organism-based; conditions: in vivo, 336 h, dose 1000-2000 mg/kg, time 14 day
[25] = Acute toxicity in male C57BL/6 mouse assessed as effect on body weight loss at 1000 to 2000 mg/kg, po measured for 14 days; format: organism-based; conditions: in vivo, 336 h, dose 1000-2000 mg/kg, time 14 day
[26] = Acute toxicity in male C57BL/6 mouse assessed as lethargy at 1000 to 2000 mg/kg, po measured for 14 days; format: organism-based; conditions: in vivo, 336 h, dose 1000-2000 mg/kg, time 14 day
[27] = Acute toxicity in female C57BL/6 mouse assessed as hyperactivity at 1000 to 2000 mg/kg, po measured for 14 days; format: organism-based; conditions: in vivo, 336 h, dose 1000-2000 mg/kg, time 14 day
[28] = Acute toxicity in female C57BL/6 mouse assessed as anorexia at 1000 to 2000 mg/kg, po measured for 14 days; format: organism-based; conditions: in vivo, 336 h, dose 1000-2000 mg/kg, time 14 day
[29] = Acute toxicity in male C57BL/6 mouse assessed as anorexia at 1000 to 2000 mg/kg, po measured for 14 days; format: organism-based; conditions: in vivo, 336 h, dose 1000-2000 mg/kg, time 14 day
[30] = Acute toxicity in female C57BL/6 mouse assessed as effect on fur laxity at 1000 to 2000 mg/kg, po measured for 14 days; format: organism-based; conditions: in vivo, 336 h, dose 1000-2000 mg/kg, time 14 day
[31] = Acute toxicity in male C57BL/6 mouse assessed as effect on fur laxity at 1000 to 2000 mg/kg, po measured for 14 days; format: organism-based; conditions: in vivo, 336 h, dose 1000-2000 mg/kg, time 14 day
[32] = Acute toxicity in C57BL/6 mouse assessed as heart damage at 1000 mg/kg, po measured for 14 days; format: organism-based; conditions: in vivo, 336 h, time 14 day
[33] = Acute toxicity in C57BL/6 mouse assessed as liver damage at 1000 mg/kg, po measured for 14 days; format: organism-based; conditions: in vivo, 336 h, time 14 day
[34] = Acute toxicity in C57BL/6 mouse assessed as spleen damage at 1000 mg/kg, po measured for 14 days; format: organism-based; conditions: in vivo, 336 h, time 14 day

## C=CCOc1ccc(/C=C/c2cc(OC)cc(OC)c2-c2cnnn2C(=O)NCCCl)cc1
[1]
  Activity: Non-Toxic
[2]
  Activity: Non-Toxic
RAW264.7 [3]
  IC50: 0.6 µM
[4]
  IC50 at 24 h: > 50 µM
[5]
  IC50 at 24 h: > 50 µM
RAW264.7 [6]
  Activity: Active
RAW264.7 [7]
  Activity: Active
RAW264.7 [8]
  Activity: Dose-Dependent Effect
RAW264.7 [9]
  Activity: Active
RAW264.7 [10]
  Activity: Dose-Dependent Effect
RAW264.7 [11]
  Activity: Dose-Dependent Effect
RAW264.7 [12]
  Activity: Active
RAW264.7 [13]
  Activity: Active
RAW264.7 [14]
  Activity: Active
Mus musculus [15]
  Activity: Active
Mus musculus [16]
  Activity: Active
Mus musculus [17]
  Activity: Active
Mus musculus [18]
  Activity: Active
Mus musculus [19]
  Activity: Active
Mus musculus [20]
  Activity: Active
Mus musculus [21]
  Activity: Active
Mus musculus [22]
  Activity: Active
[23]
  Activity: Non-Toxic
[24]
  Activity: Non-Toxic
[25]
  Activity: Non-Toxic
[26]
  Activity: Non-Toxic
[27]
  Activity: Non-Toxic
[28]
  Activity: Non-Toxic
[29]
  Activity: Non-Toxic
[30]
  Activity: Non-Toxic
[31]
  Activity: Non-Toxic
[32]
  Activity: Non-Toxic
[33]
  Activity: Non-Toxic
[34]
  Activity: Non-Toxic
